The assay concerns the target T1, FLAG-tagged full length PHD2 (Homo sapiens, UniProt Q9GZT9).
T1 construct: FLAG-tagged full length PHD2 expressed in and purified from baculovirus-infected Sf9 cells; FLAG; made in house; host or cells: baculovirus-infected Sf9 cells
The assay is described as follows: PHD2 inhibition assay (time resolved fluorescence, HIF-1α peptide hydroxylation, VHL complex detection). The assay is classed as biochemical. To be noted: 0.2 μM 2-oxoglutarate, 0.5 μM HIF-1α peptide. The method, then:
To each well of a 96-well plate was added 1 μL of test compound in DMSO and 20 μl of assay buffer (50 mM Tris pH 7.4/0.01% Tween-20/0.1 mg/ml bovine serum albumin/10 μM ferrous sulfate/i mM sodium ascorbate/20 μg/ml catalase) containing 0.15 μg/ml FLAG-tagged full length PHD2 expressed in and purified from baculovirus-infected Sf9 cells. After a 30 min preincubation at room temperature, the enzymatic reactions were initiated by the addition of 4 μL of substrates (final concentrations of 0.2 μM 2-oxoglutarate and 0.5 μM HIF-1α peptide biotinyl-DLDLEMLAPYIPMDDDFQL (SEQ ID NO: 1)). After 2 hr at room temperature, the reactions were terminated and signals were developed by the addition of a 25 μL quench/detection mix to a final concentration of 1 mM ortho-phenanthroline, 0.1 mM EDTA, 0.5 nM anti-(His)6 LANCE reagent (Perkin-Elmer Life Sciences), 100 nM AF647-labeled streptavidin (Invitrogen), and 2 μg/ml (His)6-VHL complex (S. Tan (2001) Protein Expr. Purif. 21, 224-234). The ratio of time resolved fluorescence signals at 665 and 620 nm was determined, and percent inhibition was calculated relative to an uninhibited control sample run in parallel.
T1 sequence (Q9GZT9 whole entry): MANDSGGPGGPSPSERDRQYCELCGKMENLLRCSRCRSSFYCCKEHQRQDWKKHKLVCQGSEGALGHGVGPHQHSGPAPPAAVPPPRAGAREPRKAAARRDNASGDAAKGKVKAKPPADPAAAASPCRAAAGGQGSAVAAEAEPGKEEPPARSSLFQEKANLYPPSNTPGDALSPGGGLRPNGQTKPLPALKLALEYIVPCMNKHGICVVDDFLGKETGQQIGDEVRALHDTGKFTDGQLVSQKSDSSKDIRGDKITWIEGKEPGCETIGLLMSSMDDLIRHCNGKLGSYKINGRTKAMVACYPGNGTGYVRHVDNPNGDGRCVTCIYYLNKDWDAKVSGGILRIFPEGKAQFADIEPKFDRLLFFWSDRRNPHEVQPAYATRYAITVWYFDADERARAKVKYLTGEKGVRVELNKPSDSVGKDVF
A word on the IC50: it is the concentration needed to halve the response being measured. Higher therefore signals lower potency. Regarding `CCOC(=O)C(C)NP(=O)(N[C@@H](C)C(=O)OCC)c1ccc(C(NC(=O)c2cnc(-c3ccccn3)nc2O)c2ccc(OC)cc2)cc1` (stereo in doubt) [Compound 1-1-3, (2S,2′S)-diethyl 2,2′-((4-((4-hydroxy-2-(pyridin-2-yl)pyrimidine-5-carboxamido)(4-methoxyphenyl)methyl)phenyl)phosphoryl)bis(azanediyl)dipropanoate], the IC50 was in the range of 20 to 100 nM. For `CCOP(=O)(OCC)c1ccc(C(NC(=O)c2cnc(-c3ccccn3)nc2O)c2ccc(OC)cc2)cc1` (stereo not drawn) [Compound 1-1-1, Diethyl 4-((4-hydroxy-2-(pyridin-2-yl)pyrimidine-5-carboxamido)(4-methoxyphenyl)methyl)phenylphosphonate] the value was 0.5 to 20 nM; for `COc1ccc(C(NC(=O)c2cnc(-c3ccccn3)nc2O)c2ccc(P(=O)(O)O)cc2)cc1` (stereo not drawn) [Compound 1-1-2, 4-((4-hydroxy-2-(pyridin-2-yl)pyrimidine-5-carboxamido)(4-methoxyphenyl)methyl)phenylphosphonic acid], 0.5 to 20 nM; for `CCOC(=O)C(C)(C)NP(=O)(NC(C)(C)C(=O)OCC)c1ccc(C(NC(=O)c2cnc(-c3ccccn3)nc2O)c2ccc(OC)cc2)cc1` (stereo not drawn) [Compound 1-1-4, diethyl 2,2′-((4-((4-hydroxy-2-(pyridin-2-yl)pyrimidine-5-carboxamido)(4-methoxyphenyl)methyl)phenyl)phosphoryl)bis(azanediyl)bis(2-methylpropanoate)], 0.5 to 20 nM.

The molecule `CCOC(=O)CNP(=O)(NCC(=O)OCC)c1ccc(C(NC(=O)c2cnc(-c3ccccn3)nc2O)c2ccc(OC)cc2)cc1` (stereo not drawn) [Compound 1-1-5, diethyl 2,2′-((4-((4-hydroxy-2-(pyridin-2-yl)pyrimidine-5-carboxamido)(4-methoxyphenyl)methyl)phenyl)phosphoryl)bis(azanediyl)diacetate] registered a concentration for half-maximal inhibition (IC50) of 20 to 100 nM.

For the molecule `COc1ccc(C(NC(=O)c2cnc(-c3ccccn3)nc2O)c2ccc([PH](=O)O)cc2)cc1` (stereo not drawn) [Compound 1-1-6, 4-((4-hydroxy-2-(pyridin-2-yl)pyrimidine-5-carboxamido)(4-methoxyphenyl)methyl)phenylphosphinic acid], the half-inhibitory concentration (IC50) was 0.5 to 20 nM. For `CCOP(=O)(OCC)c1ccc(C(NC(=O)c2cnc(-c3ccccn3)nc2O)c2ccccc2)cc1` (stereo not drawn) [Compound 2-1, Diethyl 4-((4-hydroxy-2-(pyridin-2-yl)pyrimidine-5-carboxamido)(phenyl)methyl)phenyl phosphonate] the value was 0.5 to 20 nM; for `O=C(NC(c1ccccc1)c1ccc(P(=O)(O)O)cc1)c1cnc(-c2ccccn2)nc1O` (stereo not drawn) [Compound 2-2, 4-((4-hydroxy-2-(pyridin-2-yl)pyrimidine-5-carboxamido)(phenyl)methyl)phenyl phosphonic acid], 0.5 to 20 nM.

Consider `CCOP(=O)(O)c1ccc(C(NC(=O)c2cnc(-c3ccccn3)nc2O)c2ccccc2)cc1` (stereo not drawn) [Compound 2-3, Ethyl 4-((4-hydroxy-2-(pyridin-2-yl)pyrimidine-5-carboxamido)(phenyl)methyl)phenylphosphonate], for which the IC50 lay within 0.5 to 20 nM. In the case of `CCOP(C)(=O)c1ccc(C(NC(=O)c2cnc(-c3ccccn3)nc2O)c2ccccc2)cc1` (stereo not drawn) [Compound 2-4, ethyl 4-((4-hydroxy-2-(pyridin-2-yl)pyrimidine-5-carboxamido)(phenyl)methyl)phenyl(methyl)phosphinate] it was 0.5 to 20 nM.

`CP(=O)(O)c1ccc(C(NC(=O)c2cnc(-c3ccccn3)nc2O)c2ccccc2)cc1` (stereo not drawn) [Compound 2-5, 4-((4-hydroxy-2-(pyridin-2-yl)pyrimidine-5-carboxamido)(phenyl)methyl)phenyl(methyl)phosphinic acid] yielded an IC50 of 0.5 to 20 nM.

Consider `CCOP(=O)(OCC)c1ccc(C(C)NC(=O)c2cnc(-c3ccccn3)nc2O)cc1` (stereo not drawn) [Compound 3-1, Diethyl 4-(1-(4-hydroxy-2-(pyridin-2-yl)pyrimidine-5-carboxamido)ethyl)phenyl phosphonate], for which the 50% inhibitory concentration (IC50) was in the range of 20 to 100 nM.

As to `CC(NC(=O)c1cnc(-c2ccccn2)nc1O)c1ccc(P(=O)(O)O)cc1` (stereo not drawn) [Compound 3-2, 4-(1-(4-hydroxy-2-(pyridin-2-yl)pyrimidine-5-carboxamido)ethyl)phenylphosphonic acid], the IC50 fell in the range of 100 to 10000 nM.

Take `CCOP(=O)(O)c1ccc(C(C)NC(=O)c2cnc(-c3ccccn3)nc2O)cc1` (stereo not drawn) [Compound 3-3, Ethyl hydrogen 4-(1-(4-hydroxy-2-(pyridin-2-yl)pyrimidine-5-carboxamido)ethyl)phenylphosphonate]: the IC50 fell in the range of 100 to 10000 nM.

Take `CC(NC(=O)c1cnc(-c2cccnn2)nc1O)c1ccc(P(=O)(O)O)cc1` (stereo not drawn) [Compound 3-3a, 4-(1-(4-Hydroxy-2-(pyridazin-3-yl)pyrimidine-5-carboxamido)ethyl)phenylphosphonic acid]: the IC50 lay within 100 to 10000 nM.

As for `C[C@@H](NC(=O)c1cnc(-c2ccccn2)nc1O)c1ccc(P(=O)(O)O)cc1` [Compound 3-5, (R)-4-(1-(4-hydroxy-2-(pyridin-2-yl)pyrimidine-5-carboxamido)ethyl)phenylphosphonic acid], the concentration for half-maximal inhibition (IC50) was 100 to 10000 nM. In the case of `C[C@@H](NC(=O)c1cnc(-c2cccnn2)nc1O)c1ccc(P(=O)(O)O)cc1` [Compound 3-5a, (R)-4-(1-(4-hydroxy-2-(pyridazin-3-yl)pyrimidine-5-carboxamido)ethyl)phenylphosphonic acid] it was 20 to 100 nM. With `C[C@H](NC(=O)c1cnc(-c2ccccn2)nc1O)c1ccc(P(=O)(O)O)cc1` [Compound 3-7, (S)-4-(1-(4-hydroxy-2-(pyridin-2-yl)pyrimidine-5-carboxamido)ethyl)phenylphosphonic acid], the half-maximal inhibitory concentration (IC50) fell in the range of 100 to 10000 nM. For `C[C@H](NC(=O)c1cnc(-c2cccnn2)nc1O)c1ccc(P(=O)(O)O)cc1` [Compound 3-7a, (S)-4-(1-(4-hydroxy-2-(pyridazin-3-yl)pyrimidine-5-carboxamido)ethyl)phenylphosphonic acid] the value was 100 to 10000 nM; for `CCOP(=O)(OCC)c1ccc(C(NC(=O)c2cnc(-c3ccccn3)nc2O)c2ccccc2)cn1` (stereo not drawn) [Compound 4-1, Diethyl 5-((4-hydroxy-2-(pyridin-2-yl)pyrimidine-5-carboxamido)(phenyl)methyl)pyridin-2-ylphosphonate], 0.5 to 20 nM; for `CCOP(=O)(O)c1ccc(C(NC(=O)c2cnc(-c3ccccn3)nc2O)c2ccccc2)cn1` (stereo not drawn) [Compound 4-2, Ethyl hydrogen 5-((4-hydroxy-2-(pyridin-2-yl)pyrimidine-5-carboxamido)(phenyl)methyl)pyridin-2-ylphosphonate], 0.5 to 20 nM.

With `COc1ccc(C(NC(=O)c2cnc(-c3ccccn3)nc2O)c2cccc(P(=O)(O)O)c2)cc1` (stereo not drawn) [Compound 5-1, 3-((4-hydroxy-2-(pyridin-2-yl)pyrimidine-5-carboxamido)(4-methoxyphenyl)methyl)phenylphosphonic acid], the half-inhibitory concentration (IC50) is 0.5 to 20 nM.

As to `CC(C)OP(=O)(OC(C)C)C(NC(=O)c1cnc(-c2ccccn2)nc1O)c1ccccc1` (stereo not drawn) [Compound 6-1, Diisopropyl (4-hydroxy-2-(pyridin-2-yl)pyrimidine-5-carboxamido)(phenyl)methyl phosphonate], the IC50 fell in the range of 0.5 to 20 nM. In the case of `CC(C)OP(=O)(O)C(NC(=O)c1cnc(-c2ccccn2)nc1O)c1ccccc1` (stereo not drawn) [Compound 6-2, Isopropyl Hydrogen (4-hydroxy-2-(pyridin-2-yl)pyrimidine-5-carboxamido)(phenyl)methylphosphonate] it was 20 to 100 nM; in that of `CCOP(=O)(OCC)c1ccc(C(C)C(=O)Nc2cnc(-c3ccccn3)nc2O)cc1` (stereo not drawn) [Compound 7-1, Diethyl 4-(1-(4-hydroxy-2-(pyridin-2-yl)pyrimidin-5-ylamino)-1-oxopropan-2-yl)phenyl phosphonate], 100 to 10000 nM. The molecule `CCOP(=O)(OCC)c1ccc(C(NC(=O)c2cnc(-n3cccn3)nc2O)c2ccccc2)cc1` (stereo not drawn) [Compound 8-1, Diethyl 4-((4-hydroxy-2-(1H-pyrazol-1-yl)pyrimidine-5-carboxamido)(phenyl)methyl)phenylphosphonate] registered a half-inhibitory concentration (IC50) of 0.5 to 20 nM. For `CCOP(=O)(O)c1ccc(C(NC(=O)c2cnc(-n3cccn3)nc2O)c2ccccc2)cc1` (stereo not drawn) [Compound 8-2, Ethyl hydrogen 4-((4-hydroxy-2-(1H-pyrazol-1-yl)pyrimidine-5-carboxamido)(phenyl)methyl)phenylphosphonate] the value was 0.5 to 20 nM; for `CCOP(C)(=O)c1ccc(C(NC(=O)c2cnc(-n3cccn3)nc2O)c2ccccc2)cc1` (stereo not drawn) [Compound 8-3, Ethyl 4-((4-hydroxy-2-(1H-pyrazol-1-yl)pyrimidine-5-carboxamido)(phenyl)methyl)phenyl(methyl)phosphinate], 0.5 to 20 nM; for `CP(=O)(O)c1ccc(C(NC(=O)c2cnc(-n3cccn3)nc2O)c2ccccc2)cc1` (stereo not drawn) [Compound 8-4, 4-((4-Hydroxy-2-(1H-pyrazol-1-yl)pyrimidine-5-carboxamido)(phenyl)methyl)phenyl(methyl)phosphinic acid], 0.5 to 20 nM. `CCOP(=O)(OCC)c1ccc(C(NC(=O)c2cnc(-c3cccnn3)nc2O)c2ccccc2)cc1` (stereo not drawn) [Compound 8-5, Diethyl 4-((4-hydroxy-2-(pyridazin-3-yl)pyrimidine-5-carboxamido)(phenyl)methyl)phenylphosphonate] returned an IC50 of 0.5 to 20 nM.
